One data set concerns gastric acid secretion. The following applies: in vivo; cited from earlier work.
A further data set has as its target H-2 receptors (Rattus norvegicus, UniProt P25102). In words: Rat uterus assay: reversal of histamine inhibition of electrically induced contractions. Conditions: isolated rat uterine smooth muscle; dose ratios of 2 or more indicate activity. On the procedure: Histamine reduces contractions induced by electrical stimulation of the isolated rat uterine smooth muscle, and histamine H-2 antagonists reverse this inhibition. The dose ratio for a specific concentration of test compound is determined by an assay procedure that compares the inhibitory effect of two concentrations of histamine in the presence of the test compound to the inhibitory effect of two concentrations of histamine in the absence of the test compound. The dose ratio is defined as the ratio of the concentration of histamine in the presence of the test compound to the concentration of histamine in the absence of the test compound where both concentrations produce the same inhibition of the electrical response. Dose ratios of 2 or more indicate activity. Compounds that are active at 40 ug/ml will be tested against isoproterenol at the same concentration in a similar test. Compound concentrations that are active against histamine but not against isoproterenol will be classified as specific H-2 antagonists.
The same type of receptors H-2 are involved in inhibition of contractions of the rat uterus and stimulation of gastric acid secretion. The rat uterus is therefore used as a model upon which to test for histamine H-2 antagonists that may be effective in treating peptic ulcers.

Another data set relates to ulcer formation. Conditions: in vivo; cited from earlier work.
The next data set deals with H2 receptor. In words: Lipolysis assay: histamine-stimulated lipolysis in isolated fat cells. It counts as cell-based. Conditions: isolated dog fat cells, histamine 2×10^-6 M; active = 50 percent or more inhibition. On the procedure:
Isolated fat cells of dogs are prepared from adipose tissue. Cells are incubated in the presence or absence of histamine at 2×10^-6 M. Additional flasks contain the compound to be tested, plus histamine. At the end of the incubation the cell cultures are analyzed for glycerol content, and results are converted into a lipolysis rate. The stimulation of lipolysis attributed to histamine (D) is the difference between the rate observed in its presence and absence:
These figures are then converted to a percent inhibition by the formula:
Percent inhibition=(D-E)/D×100

For data set [1] the following is noted: humans; cited from earlier work.

Chain of H-2 receptors (P25102 whole entry): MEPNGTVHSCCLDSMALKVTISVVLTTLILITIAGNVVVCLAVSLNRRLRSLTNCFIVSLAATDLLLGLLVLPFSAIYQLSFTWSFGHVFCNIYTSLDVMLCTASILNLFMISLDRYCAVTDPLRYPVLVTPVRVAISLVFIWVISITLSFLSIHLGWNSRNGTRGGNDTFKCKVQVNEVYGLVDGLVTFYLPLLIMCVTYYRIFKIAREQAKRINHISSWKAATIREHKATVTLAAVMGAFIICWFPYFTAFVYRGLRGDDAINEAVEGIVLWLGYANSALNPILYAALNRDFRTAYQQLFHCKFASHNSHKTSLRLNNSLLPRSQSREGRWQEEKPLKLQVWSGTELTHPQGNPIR

With `CNC(=S)NCCCCc1cnc[nH]1` [burimamide], the gastric acid secretion entry in the data set on gastric acid secretion is “inhibit”. At H-2 receptors, the “activity in rat uterus assay” value is recorded as “active”. For the same compound, the ulcer formation entry in the data set on ulcer formation is recorded as “inhibit”.

As to `CN/C(=N/CCSCc1nc[nH]c1C)NC#N` [cimetidine], in the data set with gastric acid secretion, the gastric acid secretion result is given as “inhibit”. For the same compound, on H-2 receptors, the “activity in rat uterus assay” value is reported as “active”. Also, the “classification in lipolysis assay (active against histamine but not norepinephrine = specific)” value in the data set with H2 receptor is given as “specific inhibitors”. Moreover, the ulcer formation result with ulcer formation is given as “inhibit”. Besides, in data set [1], the severe toxic symptoms result is on record as “no severe toxic symptoms”; the untoward effects observed result is “gynecomastia, elevated SGOT, SGPT and creatine, and increases in serum gastrin”.

As to `C/N=C(\S)NCCSCc1[nH]cnc1C` [metiamide], the gastric acid secretion result in the data set on gastric acid secretion is listed as “inhibit”. Further, on H-2 receptors, the “activity in rat uterus assay” value is on record as “active”. In the data set on H2 receptor, the “classification in lipolysis assay (active against histamine but not norepinephrine = specific)” value is given as “specific inhibitors”. In addition, in the data set with ulcer formation, the ulcer formation entry was “inhibit”.
